Experiments:
U87MG cells = experiment: CellTiter-Glo luminescent cell viability assay, cytotoxic effects on glioblastoma cell line; type: cell-based; settings: Homo sapiens, U-87 MG, 168 h; U87MG (TMZ sensitive) cells, Day 7, doses 0-10000 μM
Method: Testing of the cytotoxic effects of polyMPC-TMZ on glioblastoma (GBM) cell lines utilized U87MG (TMZ sensitive cell line) and T98G (TMZ-resistant cell line). […] U87MG cells were plated on 96 well plates and cultured overnight in DMEM media containing 10% FBS at 37° C. in a CO2 incubator. The cells were treated with different doses of TMZ (0-10000 μM), polyMPC-TMZ-17% (random copolymer with 17 mole percent TMZ monomer) (0-10000 μM), polyMPC-TMZ-26% (random copolymer with 26% TMZ monomer) (0-10000 μM), polyMPC-TMZ-33% (random copolymer with 33% TMZ monomer) (0-10000 μM) or polyMPC-TMZ-50% random copolymer with 50 mole percent TMZ monomer) (0-10000 μM) and cell viability was tested on Day 7 using the CellTiter-Glo luminescent cell viability assay purchased from Promega, Inc. PolyMPC itself was used as a control polymer. […] All of the polyMPC-TMZ conjugates were efficacious, with a modified toxicity response as is typical of polymer prodrugs which mask the toxicity of the drug prior to making them available to the tumor. […] The higher IC50 values of polyMPC-TMZ will allow for introduction of larger drug doses in in vivo experiments.

[1] = Stability of TMZ in organic solvents by UV-Vis spectroscopy; type: physicochemical; settings: 0.01 mg/ml in 1:1 MeOH:DMSO
Method: This observation prompted investigation of the stability of TMZ in organic solvents, a property not previously reported to our knowledge. Solutions of TMZ (0.01 milligram per milliliter concentration) in 1:1 MeOH:DMSO, DMSO, ACN, and 2,2,2-trifluoroethanol (TFE) were incubated at room temperature, as well as elevated temperatures (e.g., 50° C. and 70° C.). […] The marked difference in stability of TMZ observed between MeOH and TFE was attributed to the poor nucleophilicity of the latter, which precludes rapid imidazotetrazine solvolysis.

- degradation in MeOH:DMSO mixture, heated ([1]; 50° C. or 70° C., after 1 hour): fully degraded
- degradation in MeOH:DMSO mixture, room temperature ([1]; room temperature): significant degradation
Structure (SMILES): Cn1nnc2c(C(N)=O)ncn2c1=O [TMZ, Temozolomide]
- IC50 (U87MG cells): ~192 µM
